Each block holds one compound with its values, some of them ahead of it.
Columns and labels:
NCI-H2228 [1] = test: cells; conditions: Homo sapiens, NCI-H2228, 96 h
Description: Antiproliferative activity against EML4-ALK positive human NCI-H2228 cells assessed as inhibition of cell growth incubated for 96 hrs by MTT assay

KARPAS-299 = test: cells; conditions: Homo sapiens, KARPAS-299, 96 h
Description: Antiproliferative activity against NPM-ALK positive human KARPAS-299 cells assessed as inhibition of cell growth incubated for 96 hrs by CCK-8 assay

[2] = target: ALK tyrosine kinase receptor (Homo sapiens, UniProt Q9UM73); test: Inhibition of wild type N-terminal GST tagged ALK cytoplasmic domain (1058 to 1620 end residues) (unknown origin) expressed in Sf21 cells incubated for 1 hr in presence of ATP
A549 = test: cells; conditions: Homo sapiens, A549, 96 h
Description: Antiproliferative activity against ALK-negative human A549 cells assessed as inhibition of cell growth incubated for 96 hrs by MTT assay

HCT-116 = test: cells; conditions: Homo sapiens, HCT-116, 96 h
Description: Antiproliferative activity against ALK-negative human HCT-116 cells assessed as inhibition of cell growth incubated for 96 hrs by MTT assay

NCI-H2228 [3] = test: Induction of cell cycle arrest in human NCI-H2228 cells assessed as accumulation of cells at G1 phase at 1.8 uM incubated for 48 hrs propidium iodide staining based flow cytometric analysis (reference value: 59.82%); format: functional
NCI-H2228 [4] = test: Induction of apoptosis in human NCI-H2228 cells assessed as late apoptotic cells at 0.2 uM incubated for 48 hrs by annexinV-FITC/propidium iodide staining based flow cytometry analysis (reference value: 2.40%); format: functional
NCI-H2228 [5] = test: Induction of apoptosis in human NCI-H2228 cells assessed as viable cells at 0.6 uM incubated for 48 hrs by annexinV-FITC/propidium iodide staining based flow cytometry analysis (reference value: 93.63%); format: functional; conditions: read-out: Activity
NCI-H2228 [6] = test: Induction of apoptosis in human NCI-H2228 cells assessed as late apoptotic cells at 0.6 uM incubated for 48 hrs by annexinV-FITC/propidium iodide staining based flow cytometry analysis (reference value: 2.40%); format: functional
NCI-H2228 [7] = test: Induction of apoptosis in human NCI-H2228 cells assessed as necrotic at 0.2 uM incubated for 48 hrs by annexinV-FITC/propidium iodide staining based flow cytometry analysis (reference value: 2.12%); format: functional
NCI-H2228 [8] = test: Induction of apoptosis in human NCI-H2228 cells assessed as viable cells at 0.2 uM incubated for 48 hrs by annexinV-FITC/propidium iodide staining based flow cytometry analysis (reference value: 93.63%); format: functional; conditions: read-out: Activity
NCI-H2228 [9] = test: Induction of apoptosis in human NCI-H2228 cells assessed as early apoptotic cells at 0.2 uM incubated for 48 hrs by annexinV-FITC/propidium iodide staining based flow cytometry analysis (reference value: 1.84%); format: functional
NCI-H2228 [10] = test: Induction of cell cycle arrest in human NCI-H2228 cells assessed as accumulation of cells at G1 phase at 0.2 uM incubated for 48 hrs propidium iodide staining based flow cytometric analysis (reference value: 59.82%); format: functional
NCI-H2228 [11] = test: Induction of apoptosis in human NCI-H2228 cells assessed as viable cells at 1.8 uM incubated for 48 hrs by annexinV-FITC/propidium iodide staining based flow cytometry analysis (reference value: 93.63%); format: functional; conditions: read-out: Activity
NCI-H2228 [12] = test: Induction of cell cycle arrest in human NCI-H2228 cells assessed as accumulation of cells at S phase at 1.8 uM incubated for 48 hrs propidium iodide staining based flow cytometric analysis (reference value: 28.16%); format: functional
NCI-H2228 [13] = test: Induction of cell cycle arrest in human NCI-H2228 cells assessed as accumulation of cells at G2/M phase at 1.8 uM incubated for 48 hrs propidium iodide staining based flow cytometric analysis (reference value: 12.02%); format: functional
NCI-H2228 [14] = test: Induction of cell cycle arrest in human NCI-H2228 cells assessed as accumulation of cells at G2/M phase at 0.2 uM incubated for 48 hrs propidium iodide staining based flow cytometric analysis (reference value: 12.02%); format: functional
NCI-H2228 [15] = test: Induction of apoptosis in human NCI-H2228 cells assessed as late apoptotic cells at 1.8 uM incubated for 48 hrs by annexinV-FITC/propidium iodide staining based flow cytometry analysis (reference value: 2.40%); format: functional
NCI-H2228 [16] = test: Induction of apoptosis in human NCI-H2228 cells assessed as early apoptotic cells at 1.8 uM incubated for 48 hrs by annexinV-FITC/propidium iodide staining based flow cytometry analysis (reference value: 1.84%); format: functional
NCI-H2228 [17] = test: Induction of apoptosis in human NCI-H2228 cells assessed as necrotic at 0.6 uM incubated for 48 hrs by annexinV-FITC/propidium iodide staining based flow cytometry analysis (reference value: 2.12%); format: functional
NCI-H2228 [18] = test: Induction of cell cycle arrest in human NCI-H2228 cells assessed as accumulation of cells at S phase at 0.6 uM incubated for 48 hrs propidium iodide staining based flow cytometric analysis (reference value: 28.16%); format: functional
NCI-H2228 [19] = test: Induction of cell cycle arrest in human NCI-H2228 cells assessed as accumulation of cells at G1 phase at 0.6 uM incubated for 48 hrs propidium iodide staining based flow cytometric analysis (reference value: 59.82%); format: functional
NCI-H2228 [20] = test: Induction of apoptosis in human NCI-H2228 cells assessed as necrotic at 1.8 uM incubated for 48 hrs by annexinV-FITC/propidium iodide staining based flow cytometry analysis (reference value: 2.12%); format: functional
NCI-H2228 [21] = test: Induction of cell cycle arrest in human NCI-H2228 cells assessed as accumulation of cells at G2/M phase at 0.6 uM incubated for 48 hrs propidium iodide staining based flow cytometric analysis (reference value: 12.02%); format: functional
NCI-H2228 [22] = test: Induction of cell cycle arrest in human NCI-H2228 cells assessed as accumulation of cells at S phase at 0.2 uM incubated for 48 hrs propidium iodide staining based flow cytometric analysis (reference value: 28.16%); format: functional
NCI-H2228 [23] = test: Induction of apoptosis in human NCI-H2228 cells assessed as early apoptotic cells at 0.6 uM incubated for 48 hrs by annexinV-FITC/propidium iodide staining based flow cytometry analysis (reference value: 1.84%); format: functional

Sequence of ALK tyrosine kinase receptor (Q9UM73 whole entry, the tested form may be a part): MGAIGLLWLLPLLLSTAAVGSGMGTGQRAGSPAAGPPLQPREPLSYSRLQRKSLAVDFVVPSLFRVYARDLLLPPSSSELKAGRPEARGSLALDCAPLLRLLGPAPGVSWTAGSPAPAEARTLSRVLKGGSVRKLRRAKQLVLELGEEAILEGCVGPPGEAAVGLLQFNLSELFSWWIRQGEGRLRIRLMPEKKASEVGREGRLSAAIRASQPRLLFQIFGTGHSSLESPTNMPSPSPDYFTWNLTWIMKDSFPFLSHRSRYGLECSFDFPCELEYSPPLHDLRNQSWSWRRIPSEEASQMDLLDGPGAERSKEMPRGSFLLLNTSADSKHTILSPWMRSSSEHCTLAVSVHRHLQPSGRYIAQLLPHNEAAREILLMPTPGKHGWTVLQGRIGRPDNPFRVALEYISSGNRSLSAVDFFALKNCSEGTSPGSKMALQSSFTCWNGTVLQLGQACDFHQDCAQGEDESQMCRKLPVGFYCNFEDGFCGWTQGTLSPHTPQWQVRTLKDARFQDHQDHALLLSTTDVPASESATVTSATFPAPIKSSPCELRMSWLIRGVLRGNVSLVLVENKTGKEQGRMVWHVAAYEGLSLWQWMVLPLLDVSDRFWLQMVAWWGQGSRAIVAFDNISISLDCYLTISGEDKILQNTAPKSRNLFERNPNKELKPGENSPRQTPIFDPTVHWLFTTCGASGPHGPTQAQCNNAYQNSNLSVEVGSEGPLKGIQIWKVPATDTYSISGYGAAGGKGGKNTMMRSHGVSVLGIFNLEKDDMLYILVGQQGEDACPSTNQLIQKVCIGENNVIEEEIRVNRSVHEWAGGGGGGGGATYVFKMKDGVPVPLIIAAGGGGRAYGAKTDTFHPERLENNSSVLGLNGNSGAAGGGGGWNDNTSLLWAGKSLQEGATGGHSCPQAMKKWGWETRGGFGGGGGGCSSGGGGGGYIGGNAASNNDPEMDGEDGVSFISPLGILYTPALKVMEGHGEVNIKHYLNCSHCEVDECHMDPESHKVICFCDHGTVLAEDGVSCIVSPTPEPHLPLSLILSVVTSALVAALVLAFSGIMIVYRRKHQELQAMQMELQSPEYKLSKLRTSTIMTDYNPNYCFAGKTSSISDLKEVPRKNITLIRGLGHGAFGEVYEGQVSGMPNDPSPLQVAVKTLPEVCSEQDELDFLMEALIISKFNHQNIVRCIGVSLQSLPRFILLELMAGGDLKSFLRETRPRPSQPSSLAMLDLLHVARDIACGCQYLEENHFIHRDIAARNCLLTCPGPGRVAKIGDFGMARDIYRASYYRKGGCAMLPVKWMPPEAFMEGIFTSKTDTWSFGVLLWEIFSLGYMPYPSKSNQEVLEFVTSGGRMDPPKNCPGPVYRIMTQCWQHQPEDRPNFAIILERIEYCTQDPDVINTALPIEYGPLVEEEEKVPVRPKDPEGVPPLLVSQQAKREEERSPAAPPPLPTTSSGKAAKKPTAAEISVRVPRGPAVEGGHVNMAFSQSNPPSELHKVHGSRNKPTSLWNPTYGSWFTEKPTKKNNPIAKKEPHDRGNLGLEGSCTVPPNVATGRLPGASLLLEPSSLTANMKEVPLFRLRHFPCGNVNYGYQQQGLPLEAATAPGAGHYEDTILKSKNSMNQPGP

- IC50 (NCI-H2228 [1]): 320 nM
- IC50 (KARPAS-299): 140 nM
- IC50 [2]: > 100 nM
- IC50 (A549): > 10000 nM
- IC50 (HCT-116): 2700 nM
Structure (SMILES): Cc1cc(Nc2ncc(Cl)c(Nc3ccccc3S(=O)(=O)C(C)C)n2)c(OC(C)C)cc1C1CCN(C(=O)SCC(=S)N2CCN(C)CC2)CC1

- IC50 (NCI-H2228 [1]): 70 nM
- IC50 (KARPAS-299): 70 nM
- IC50 (A549): > 10000 nM
- IC50 (HCT-116): 5530 nM
Structure (SMILES): Cc1cc(Nc2ncc(Cl)c(Nc3ccccc3S(=O)(=O)C(C)C)n2)c(OC(C)C)cc1C1CCN(C(=O)SCC(=S)N2CCS(=O)(=O)CC2)CC1
- Activity (NCI-H2228 [3]): 56.55%
- Activity (NCI-H2228 [4]): 3.65%
- viability at 0.6 µM (NCI-H2228 [5]): 84.4%
- Activity (NCI-H2228 [6]): 6.37%
- Activity (NCI-H2228 [7]): 2.24%
- viability at 0.2 µM (NCI-H2228 [8]): 89.8%
- Activity (NCI-H2228 [9]): 4.31%
- Activity (NCI-H2228 [10]): 59.7%
- viability at 1.8 µM (NCI-H2228 [11]): 79.1%
- Activity (NCI-H2228 [12]): 16.1%
- Activity (NCI-H2228 [13]): 27.35%
- Activity (NCI-H2228 [14]): 15.59%
- Activity (NCI-H2228 [15]): 8.06%
- Activity (NCI-H2228 [16]): 8.84%
- Activity (NCI-H2228 [17]): 3.5%
- Activity (NCI-H2228 [18]): 22.74%
- Activity (NCI-H2228 [19]): 59.11%
- Activity (NCI-H2228 [20]): 4.04%
- Activity (NCI-H2228 [21]): 18.15%
- Activity (NCI-H2228 [22]): 24.71%
- Activity (NCI-H2228 [23]): 5.7%

- IC50 (NCI-H2228 [1]): 210 nM
- IC50 (KARPAS-299): 100 nM
- IC50 [2]: > 100 nM
- IC50 (A549): > 10000 nM
- IC50 (HCT-116): 3960 nM
Structure (SMILES): Cc1cc(Nc2ncc(Cl)c(Nc3ccccc3S(=O)(=O)C(C)C)n2)c(OC(C)C)cc1C1CCN(C(=O)SCC(=S)N2CC(C)N(C)C(C)C2)CC1 (stereo not given)
